Experimental data from PubChem BioAssay AID179 (DTP/NCI, 2004).
Calls of active or inactive are those of the source.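 Rule for the calls: active = compounds giving half or more protection of infected cells from virus-caused growth loss, again on retest; inactive = the rest.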

Tested on: CEM cells HIV-1 protection, formazan growth assay
Test: NCI AIDS Antiviral Assay
Details: for IC50: measured here: growth of uninfected CEM cells
Summary of the method: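 Soluble formazan readout of cell growth; CEM cells ± HIV-1; 5 drug concs. ≥50% protection → retest; ≥50% again = moderately active; reproducible 100% = confirmed active.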

Row | SMILES | EC50 [µM] | IC50 [µM] | outcome
1 | CC1(c2cccc3c2C2(O)C=CC4(CCC32)OCCO4)OCCO1 (configuration not stated) | 123 | 174 | –
2 | CN1CCN(c2nc3cc(F)ccc3n3cccc23)CC1 | > 200 | 27.5 | –
3 | OCC1C(CO)C2CCC1C2(c1ccccc1)c1ccccc1 (configuration not stated) | > 95.5 | 60.3 | –
4 | NCCNCc1c2ccccc2c(CNCCN)c2ccccc12 | > 95.5 | 7.94 | –
5 | O=C(O)Cc1c(-c2ccc([N+](=O)[O-])cc2)c(=O)oc2cc(O)ccc12 | > 200 | 21.4 | –
6 | CCOC(=O)C1=NN(c2ccccc2)C(=O)/C1=C\N1C(=O)CC(=O)NC1=S | > 200 | 195 | –
7 | CC(=O)OCC(OC(C)=O)C(OC(C)=O)C(/C=N\Nc1nc2ccccc2c(=O)[nH]1)OC(C)=O (configuration not stated) | > 200 | > 200 | –
8 | CCP(CC)(c1ccccc1)=c1c(=O)c(Cl)c(Cl)c(=O)c1=O | > 200 | 27.5 | –
9 | CCN(CC)c1ccc2cc(-c3csc(C)n3)c(=O)oc2c1 | > 200 | 10.2 | –
10 | CCC(C)(C)OC(=O)CC[C@@H](C)[C@H]1CC[C@H]2[C@@H]3CCC4CC(O)CC[C@]4(C)[C@H]3CC[C@]12C (some centres not stated) | > 200 | 27.5 | –
11 | COC(=O)c1c(C(=O)OC)c(-c2ccccc2)n(-c2ccccc2)c(=O)c1-c1ccccc1 | – | – | inactive
12 | COc1ccc(C(=O)Nc2cc(C(=CCC[C@H]3CC[C@@]4(C)[C@@H](CC[C@@H]5[C@@H]4CC[C@]4(C)[C@@H](C(C)CCCC(C)C)CC[C@@H]54)C3)c3cc(NC(=O)c4ccc(OC)c(C(=O)O)c4)c(OC)c(C(=O)O)c3)cc(C(=O)O)c2OC)cc1C(=O)O (some centres not stated) | 36.3 | 49 | –
13 | O=C(Nc1ccn(C2CC(O)C(COC(c3ccccc3)(c3ccccc3)c3ccccc3)O2)c(=O)n1)c1ccccc1 (configuration not stated) | > 200 | 7.41 | –
14 | O/N=C/[C@H]1COC2(CCCCC2)O1 | > 200 | > 200 | –
15 | CCOC(=O)Nc1sc2c(c1C#N)CCCC2 | 41.7 | 105 | –
16 | CCOC(=O)c1c(NCc2ccccc2)n(-c2ccccc2)c(=S)n(-c2ccccc2)c1=O | > 40.7 | 30.2 | –
17 | Cc1c(C(=O)CSc2nc3ccccc3c(=O)n2-c2ccccc2)c(=O)n(-c2ccccc2)n1C | > 5.62 | > 5.62 | –
18 | Nc1ncnc2c1ncn2[C@H]1CC(CO)CO1 (some centres not stated) | > 661 | > 661 | –
19 | Cn1c(=O)[nH]c2c(c1=O)Cc1ccccc1S2(=O)=O | > 389 | 148 | –
20 | COc1ccc(S(=O)(=O)Cc2ccc(C(=O)O)cc2[N+](=O)[O-])cc1 | > 708 | 646 | –
21 | COC(=O)c1ccc(C)cc1CC1Cc2cccc(C)c2C1=O (configuration not stated) | > 200 | 5.37 | –
22 | COc1cc(NCCCNCC(C)(C)C)c2ncccc2c1 | > 200 | 81.3 | –

Row | SMILES | EC50 [µM] | IC50 [µM] | outcome
23 | CC1C2(C)OCC(C#N)(C(=N)O2)C1(C#N)C#N (configuration not stated) | > 200 | 20.9 | –
24 | Cc1ccc(/S(Cc2ccccc2)=N\S(=O)(=O)c2ccc(C)cc2)cc1 (configuration not stated) | > 67.6 | > 67.6 | –
25 | CC(=O)C(N=Nc1nc2ccccc2[nH]1)C(C)=O | > 200 | 20 | –
26 | S=C1c2ccccc2NC(=NC2CCCC2)C2CSCN12 (configuration not stated) | > 200 | 148 | –
27 | O=C(C=P(c1ccccc1)(c1ccccc1)c1ccccc1)C1(C(=O)C=P(c2ccccc2)(c2ccccc2)c2ccccc2)CC1 | > 200 | 9.55 | –
28 | CCCOC(=O)C(F)C(Br)C(=O)OCCC (configuration not stated) | > 200 | 3.16 | –
29 | CC1=C(C(=O)NNC(=O)c2ccccc2)CC(C(=O)NNC(=O)c2ccccc2)=C(C)N1 | > 200 | > 200 | –
30 | COc1ccc2nc(-c3ccccc3)c(=O)[nH]c2c1 | > 200 | 45.7 | –
31 | COC1C=CC(O)C(CO)O1 (configuration not stated) | – | – | inactive
32 | COCn1c2ccc(OC(C)=O)cc2c2c(=O)oc(C)nc21 | > 200 | 170 | –
33 | CC[C@@H]1CC2CN3CCc4c([nH]c5cc(OC)ccc45)C(C(=O)OC)(C2)C13 (some centres not stated) | – | – | inactive
34 | COC(=O)N[C@@H]1C[C@H]2CC[C@]1(O[Si](C(C)C)(C(C)C)C(C)C)C(=O)C2 | > 200 | 16.6 | –
35 | CCC(CON(C)c1ccccc1)(SC)SC | > 200 | 105 | –
36 | C(=C\c1ccnc2ccccc12)/c1ccnc2ccccc12 | > 13.2 | > 13.2 | –
37 | Cc1ccc2c(c1)N=Cc1ccccc1O2 | > 174 | 10.7 | –
38 | C1=CC2C(c3cn(-c4ccccc4)nc31)C1C2C2C=CC3C(C=C2)C31 (configuration not stated) | > 3.24 | > 3.24 | –
39 | CC1NS(=O)(=O)N(C)C1=O (configuration not stated) | – | – | inactive
40 | CC1C=C2c3ccccc3CC2C2C(=O)OC(=O)C12 (configuration not stated) | > 200 | > 200 | –
41 | Cc1ccnc(NC(=O)NC2CCCCC2)c1 | > 200 | 145 | –
42 | CS(=O)(=O)Nc1nc2ccccc2c(=O)o1 | > 200 | > 200 | –
43 | O=C(NCc1ccc(Cl)cc1)c1cc2sccc2nc1C(F)(F)F | 93.3 | > 200 | –
